Target: human URAT1 (Homo sapiens (Human), UniProt Q96S37)
Test: Test for uric acid transport inhibition using human URAT1 expression cell
Assay type: cell-based
Conditions: human URAT1 stable expression CHO cell; 14C-labeled uric acid 38 μM final concentration; incorporation at room temperature for 5 minutes; 100% window defined with benzbromarone 100 μM; read-out: URAT1 Inhibitory Activity (IC50)
Method: In this Example, it was evaluated whether the Example compound has the URAT1 inhibitory activity.
Human URAT1 full-length cDNA was introduced to an expression vector pcDNA5/FRT/V5-His TOPO (registered trademark) (Invitrogen Corporation). The obtained expression plasmid was introduced to Chinese hamster ovary cell (hereinafter referred to as the CHO cell) by the liposome method using Lipofectamine LTX (Invitrogen), and cultured in a selection medium including hygromycin, whereby to prepare human URAT1 stable expression cell.
The human URAT1 expression CHO cell was cultured using D-MEM/F-12 (1:1) mixed medium including 10% bovine fetal serum and hygromycin at 37° C. in the presence of 5% CO2. The cells were seeded onto a 96 well plate (Corning Incorporated) in 0.8×10^5 cells/well, and after 24 hours, the test for uric acid transport inhibition below was performed.
The medium was removed by aspiration, and then the cells were washed once with an assay buffer including 125 mM of sodium gluconate, 4.8 mM of potassium gluconate, 1.2 mM of potassium dihydrogen phosphate, 1.2 mM of magnesium sulfate, 1.3 mM of calcium gluconate and 5.6 mM of glucose. 50 μL assay buffer including the test compound in various concentrations was added, and further 50 μL assay buffer including a radioactive ligand (uric acid labeled with ^14C; 38 μM final concentration) was added, and incorporation reaction was performed at room temperature for 5 minutes. Immediately after completion of the reaction, the reaction mixture was washed twice with 100 μL ice-cold assay buffer, and 100 μL of 0.1 N sodium hydroxide was added. The reaction mixture was stirred to lyse the cells, and 4 mL Hionic-Fluor (Packard BioScience CO) was added, and then the radioactivity was measured with a liquid scintillation counter (Beckman Coulter, Inc. and Packard BioScience CO).
The radioactivity when each concentration of the test compound was added (uric acid incorporation activity, %) was calculated in which the difference of the radioactivity when the test compound was not added (DMSO added), and the radioactivity when a positive control compound, benzbromarone (known URAT1 inhibitor) was added in 100 μM, was taken as 100%, and the concentration of the test compound when the uric acid incorporation activity was inhibited to 50% (IC50) was obtained.

Sequence of human URAT1 (Q96S37 whole entry): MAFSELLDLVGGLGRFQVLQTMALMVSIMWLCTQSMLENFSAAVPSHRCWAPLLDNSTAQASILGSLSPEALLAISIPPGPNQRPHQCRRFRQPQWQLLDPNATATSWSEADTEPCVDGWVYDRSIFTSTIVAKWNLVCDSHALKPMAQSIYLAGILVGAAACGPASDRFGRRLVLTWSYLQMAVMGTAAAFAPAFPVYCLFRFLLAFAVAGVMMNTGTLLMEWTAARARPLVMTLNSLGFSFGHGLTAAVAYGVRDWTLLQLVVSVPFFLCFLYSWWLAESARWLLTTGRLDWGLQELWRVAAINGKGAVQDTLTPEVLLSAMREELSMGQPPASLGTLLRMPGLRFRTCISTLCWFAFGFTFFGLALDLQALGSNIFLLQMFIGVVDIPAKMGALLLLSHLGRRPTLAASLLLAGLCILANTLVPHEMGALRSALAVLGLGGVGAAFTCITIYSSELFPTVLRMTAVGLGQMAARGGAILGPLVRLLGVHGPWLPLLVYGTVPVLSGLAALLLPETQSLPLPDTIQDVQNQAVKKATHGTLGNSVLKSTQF

| Structure (SMILES) | IC50 |
| --- | --- |
| Cc1cccc(C)c1Cn1cc(C)c2ccc(C(=O)O)cc21 [Example 61, 1-(2,6-dimethylbenzyl)-3-methyl-1H-indole-6-carboxylic acid] | 0.046 µM |
| Cc1cccc(C)c1Cn1cc(C)c2ccc(CC(=O)O)cc21 [Example 64, 2-[1-(2,6-dimethylbenzyl)-3-methyl-1H-indole-6-yl]acetic acid] | 0.022 µM |
| Cc1cccc(C)c1Cn1nc(C)c2ccc(CC(=O)O)cc21 [Example 66, 2-[1-(2,6-dimethylbenzyl)-3-methyl-1H-indazole-6-yl]acetic acid] | 0.067 µM |
| Cc1cccc(C)c1Cn1cc(Cl)c2ccc(CC(=O)O)cc21 [Example 68, 2-[3-chloro-1-(2,6-dimethylbenzyl)-1H-indole-6-yl]acetic acid] | 0.03 µM |
| Cc1cccc(C)c1CN1CCc2ccc(CC(=O)O)cc21 [Example 75, 2-[1-(2,6-dimethylbenzyl)-2,3-dihydro-1H-indole-6-yl]acetic acid] | 0.077 µM |
| Cc1cccc(C)c1CN1CC(C)(C)c2ccc(CC(=O)O)cc21 [Example 80, 2-[1-(2,6-dimethylbenzyl)-2,3-dihydro-3,3-dimethyl-1H-indole-6-yl]acetic acid] | 0.018 µM |
| Cc1cn(Cc2cccc(Cl)c2Cl)c2cc(CC(=O)O)ccc12 [Example 84, 2-[1-(2,3-dichlorobenzyl)-3-methyl-1H-indole-6-yl]acetic acid] | 0.053 µM |
| Cc1ccc(C)c(Cn2cc(C)c3ccc(CC(=O)O)cc32)c1 [Example 85, 2-[1-(2,5-dimethylbenzyl)-3-methyl-1H-indole-6-yl]acetic acid] | 0.063 µM |
| Cc1cn(Cc2ccccc2Cl)c2cc(CC(=O)O)ccc12 [Example 87, 2-[1-(2-chlorobenzyl)-3-methyl-1H-indole-6-yl]acetic acid] | 0.088 µM |
| Cc1cn(Cc2cc3c(cc2Cl)OCO3)c2cc(CC(=O)O)ccc12 [Example 88, 2-{1-[(6-chlorobenzo[d][1,3]dioxol-5-yl)methyl]-3-methyl-1H-indole-6-yl}acetic acid] | 0.098 µM |
| Cc1cn(Cc2c(Cl)cccc2Cl)c2cc(CCC(=O)O)ccc12 [Example 89, 3-[1-(2,6-dichlorobenzyl)-3-methyl-1H-indole-6-yl]propionic acid] | 0.023 µM |
| CCc1cn(Cc2c(C)cccc2C)c2cc(C(=O)O)ccc12 [Example 91, 1-(2,6-dimethylbenzyl)-3-ethyl-1H-indole-6-carboxylic acid] | 0.043 µM |
| Cc1nn(Cc2c(F)cccc2Cl)c2cc(CC(=O)O)ccc12 [Example 104, 2-[1-(2-chloro-6-fluorobenzyl)-3-methyl-1H-indazole-6-yl]acetic acid] | 0.101 µM |
| Cc1nn(Cc2csc3ccc(Cl)cc23)c2cc(CC(=O)O)ccc12 [Example 106, 2-{1-[(5-chlorobenzo[b]thiophene-3-yl)methyl]-3-methyl-1H-indazole-6-yl}acetic acid] | 0.055 µM |
| Cc1cc(C)c(Cn2nc(C)c3ccc(CC(=O)O)cc32)c(C)c1 [Example 108, 2-[3-methyl-1-(2,4,6-trimethylbenzyl)-1H-indazole-6-yl]acetic acid] | 0.094 µM |
| Cc1nn(Cc2c(Cl)cccc2C#N)c2cc(CC(=O)O)ccc12 [Example 109, 2-[1-(2-chloro-6-cyanobenzyl)-3-methyl-1H-indazole-6-yl]acetic acid] | 0.335 µM |
| Cc1cccc(C)c1Cn1nc(C)c2ccc(C(=O)O)cc21 [Example 117, 1-(2,6-dimethylbenzyl)-3-methyl-1H-indazole-6-carboxylic acid] | 0.091 µM |
| Cc1nn(Cc2cccc(Cl)c2Cl)c2cc(C(=O)O)ccc12 [Example 120, 1-(2,3-dichlorobenzyl)-3-methyl-1H-indazole-6-carboxylic acid] | 0.091 µM |
| Cc1nn(Cc2c(Cl)cccc2Cl)c2cc(CCC(=O)O)ccc12 [Example 122, 3-[1-(2,6-dichlorobenzyl)-3-methyl-1H-indazole-6-yl]propionic acid] | 0.01 µM |
| Cc1nn(Cc2c(Cl)cccc2C#N)c2cc(CCC(=O)O)ccc12 [Example 125, 3-[1-(2-chloro-6-cyanobenzyl)-3-methyl-1H-indazole-6-yl]propionic acid] | 0.072 µM |
| Cc1nn(Cc2c(Cl)cccc2Cl)c2cc(CCC(N)=O)ccc12 [Example 132, 3-[1-(2,6-dichlorobenzyl)-3-methyl-1H-indazole-6-yl]propionamide] | 0.186 µM |
| Cc1nn(Cc2c(Cl)cccc2Cl)c2cc(Cc3nnn[nH]3)ccc12 [Example 134, 1-(2,6-dichlorobenzyl)-3-methyl-6-(1H-tetrazole-5-ylmethyl)-1H-indazole] | 0.013 µM |
| Cc1nn(Cc2c(Cl)cccc2Cl)c2cc(CCc3nnn[nH]3)ccc12 [Example 135, 1-(2,6-dichlorobenzyl)-3-methyl-6-[2-(1H-tetrazole-5-yl)ethyl]-1H-indazole] | 0.023 µM |
| Cc1nn(Cc2c(Cl)cccc2Cl)c2cc(Cc3n[nH]c(=O)o3)ccc12 [Example 136, 5-{[1-(2,6-dichlorobenzyl)-3-methyl-1H-indazole-6-yl]methyl}-1,3,4-oxadiazol-2(3H)-one] | 0.034 µM |
| Cc1nn(Cc2c(Cl)cccc2Cl)c2cc(Cc3n[nH]c(=S)o3)ccc12 [Example 137, 5-{[1-(2,6-dichlorobenzyl)-3-methyl-1H-indazole-6-yl]methyl}-1,3,4-oxadiazol-2(3H)-thione] | 0.01 µM |

Second part, the molecule after the results:

| IC50 | Structure (SMILES) |
| --- | --- |
| 0.024 µM | Cc1cccc(C)c1CN1CC(C)c2ccc(CC(=O)O)cc21 (centres unmarked) [Example 78, (3-RS)-2-[1-(2,6-dimethylbenzyl)-2,3-dihydro-3-methyl-1H-indole-6-yl]acetic acid] |
| 0.015 µM | Cc1cn(Cc2c(Cl)cccc2Cl)c2cc(CC(=O)O)ccc12 [Example 82, 2-[1-(2,6-dichlorobenzyl)-3-methyl-1H-indole-6-yl]acetic acid] |
| 0.028 µM | Cc1cn(Cc2c(F)cccc2Cl)c2cc(CC(=O)O)ccc12 [Example 86, 2-[1-(2-chloro-6-fluorobenzyl)-3-methyl-1H-indole-6-yl]acetic acid] |
| 0.071 µM | Cc1cccc(C)c1Cn1cc(C(C)C)c2ccc(C(=O)O)cc21 [Example 92, 1-(2,6-dimethylbenzyl)-3-isopropyl-1H-indole-6-carboxylic acid] |
| 0.018 µM | Cc1nn(Cc2c(Cl)cccc2Cl)c2cc(CC(=O)O)ccc12 [Example 97, 2-[1-(2,6-dichlorobenzyl)-3-methyl-1H-indazole-6-yl]acetic acid] |
| 0.041 µM | Cc1nn(Cc2cccc(Cl)c2Cl)c2cc(CC(=O)O)ccc12 [Example 99, 2-[1-(2,3-dichlorobenzyl)-3-methyl-1H-indazole-6-yl]acetic acid] |
| 0.052 µM | Cc1cccc(Cl)c1Cn1nc(C)c2ccc(CC(=O)O)cc21 [Example 102, 2-[1-(2-chloro-6-methylbenzyl)-3-methyl-1H-indazole-6-yl]acetic acid] |
| 0.077 µM | Cc1nn(Cc2cccc3ccccc23)c2cc(CC(=O)O)ccc12 [Example 107, 2-[3-methyl-1-(naphthalene-1-ylmethyl)-1H-indazole-6-yl]acetic acid] |
| 0.394 µM | Cc1nn(Cc2cccc3cccnc23)c2cc(CC(=O)O)ccc12 [Example 115, 2-[3-methyl-1-(quinoline-8-ylmethyl)-1H-indazole-6-yl]acetic acid] |
| 0.065 µM | Cc1nn(Cc2c(Cl)cccc2Cl)c2cc(C(=O)O)ccc12 [Example 119, 1-(2,6-dichlorobenzyl)-3-methyl-1H-indazole-6-carboxylic acid] |
| 0.041 µM | Cc1cccc(C)c1Cn1nc(C)c2ccc(CCC(=O)O)cc21 [Example 121, 3-[1-(2,6-dimethylbenzyl)-3-methyl-1H-indazole-6-yl]propionic acid] |
| 0.031 µM | Cc1nn(Cc2csc3ccc(Cl)cc23)c2cc(CCC(=O)O)ccc12 [Example 124, 3-{1-[(5-chlorobenzo[b]thiophene-3-yl)methyl]-3-methyl-1H-indazole-6-yl}propionic acid] |
| 0.576 µM | Cc1nn(Cc2c(Cl)cccc2Cl)c2cc(C(O)C(=O)O)ccc12 (centres unmarked) [Example 128, [1-(2,6-dichlorobenzyl)-3-methyl-1H-indazole-6-yl]hydroxyacetic acid] |
| 0.068 µM | Cc1nn(Cc2c(Cl)cccc2Cl)c2cc(C(=O)CCC(=O)O)ccc12 [Example 130, 4-[1-(2,6-dichlorobenzyl)-3-methyl-1H-indazole-6-yl]-4-oxobutyric acid] |
| 0.016 µM | Cc1nn(Cc2c(Cl)cccc2Cl)c2cc(CCCC(=O)O)ccc12 [Example 133, 4-[1-(2,6-dichlorobenzyl)-3-methyl-1H-indazole-6-yl]butyric acid] |
| 0.916 µM | Cc1nn(Cc2c(Cl)cccc2Cl)c2cc(OCC(=O)O)ccc12 [Example 138, 2-[1-(2,6-dichlorobenzyl)-3-methyl-1H-indazole-6-yloxy]acetic acid] |

— patent US8987473B2, “Ring-fused compound” (Sato Pharmaceutical Co., Ltd., priority 2011, dated 2015)
